Experimental data from patent US20240272101A1, “Direct Sampling from Phase-Separated Sample for Hydrophobicity Assessment” (DH Technologies Development Pte. Ltd., priority 2021, published 2024).

Tests used:
[1] = mass spectrometric hydrophobicity assessment: acoustic droplet ejection from water/pentanol two-phase system versus single-phase aqueous solution; format: physicochemical; conditions: MRM signal; 25 μL pentanol added to 25 μL water, 1 μg/mL analyte; FIGS. 7A and 7B
Procedure: A two-phase system was prepared by adding […] of pentanol to 25 μL of an aqueous solution of dextromethorphan. A SCIEX Triple Quad 6500+ mass spectrometer system having an acoustic droplet dispenser (shown schematically in FIG. 4) equipped with a two-layer acoustic calibration was employed to eject a plurality of droplets from the two-phase system into an OPI of the mass spectrometer for observing an MRM transition of the target analyte. Although in this example, a single MRM transition was monitored, in other cases, multiple MRM transitions of the target analyte can be monitored.
A single-phase aqueous sample was prepared as 1 μg/ml of dextromethorphan in 25 μL of water. A two-phase system was then formed by adding 25 μL of pentanol to 25 μL water in which 0.025 μg was mixed.
The above mass spectrometer was then utilized to obtain a series of measurements of the 272.2→215.1 MRM transition of the target analyte via sampling the single-phase solution and the two-phase system.
By way of comparison, a single-phase aqueous sample of adenosine was prepared by mixing adenosine with 25 μL of water to prepare a single-phase aqueous solution having a concentration of 1 μg/mL of adenosine. A two-phase system was prepared by adding 25 μL of pentanol to 25 μL aqueous single-phase system of adenosine having a concentration of 1 μg/mL adenosine. […]

[2] = known values, quoted for comparison; cited from earlier work

| Structure (SMILES) | relative ratio of the two-phase sampling signal versus the aqueous sampling signal [1] | log P [2] |
| --- | --- | --- |
| Nc1ncnc2c1ncn2[C@@H]1O[C@H](CO)[C@@H](O)[C@H]1O [adenosine] | less than that associated with dextromethorphan | −1.05 |
| COc1ccc2c(c1)[C@]13CCCC[C@@H]1[C@H](C2)N(C)CC3 [dextromethorphan] | – | +3.75 |
